Laboratory results as given in patent US20230055237A1, “COMPOUNDS AND METHODS FOR THE TREATMENT OF CYSTIC FIBROSIS” (Flatley Discovery Lab, LLC, priority 2019, published 2023).

Molecular target: T1, CFTR (Homo sapiens, UniProt P13569, DEL508-508)
T1 construct: Primary CF airway epithelial cells were obtained from the UNC Cystic Fibrosis Tissue Procurement and Cell Culture Core; host or cells: primary CF airway epithelial cells, differentiated at the air-liquid interface
Assay: Equivalent current assay in primary CF airway epithelial cells (NAUC, combination with 1st site corrector FDL169 or VX-809)
Format: cell-based
Details: 37° C., 24 h

[1] = test compound 1 μM in combination with 1st site corrector FDL169 (3 μM)
[2] = test compound 3 μM in combination with 1st site corrector FDL169 (3 μM)
[3] = test compound 10 μM in combination with 1st site corrector FDL169 (3 μM)
[4] = test compound 1 μM in combination with 1st site corrector VX-809 (3 μM)
[5] = test compound 3 μM in combination with 1st site corrector VX-809 (3 μM)
[6] = test compound 10 μM in combination with 1st site corrector VX-809 (3 μM)

T1 sequence (P13569 with tags, fused parts or gaps DEL508-508): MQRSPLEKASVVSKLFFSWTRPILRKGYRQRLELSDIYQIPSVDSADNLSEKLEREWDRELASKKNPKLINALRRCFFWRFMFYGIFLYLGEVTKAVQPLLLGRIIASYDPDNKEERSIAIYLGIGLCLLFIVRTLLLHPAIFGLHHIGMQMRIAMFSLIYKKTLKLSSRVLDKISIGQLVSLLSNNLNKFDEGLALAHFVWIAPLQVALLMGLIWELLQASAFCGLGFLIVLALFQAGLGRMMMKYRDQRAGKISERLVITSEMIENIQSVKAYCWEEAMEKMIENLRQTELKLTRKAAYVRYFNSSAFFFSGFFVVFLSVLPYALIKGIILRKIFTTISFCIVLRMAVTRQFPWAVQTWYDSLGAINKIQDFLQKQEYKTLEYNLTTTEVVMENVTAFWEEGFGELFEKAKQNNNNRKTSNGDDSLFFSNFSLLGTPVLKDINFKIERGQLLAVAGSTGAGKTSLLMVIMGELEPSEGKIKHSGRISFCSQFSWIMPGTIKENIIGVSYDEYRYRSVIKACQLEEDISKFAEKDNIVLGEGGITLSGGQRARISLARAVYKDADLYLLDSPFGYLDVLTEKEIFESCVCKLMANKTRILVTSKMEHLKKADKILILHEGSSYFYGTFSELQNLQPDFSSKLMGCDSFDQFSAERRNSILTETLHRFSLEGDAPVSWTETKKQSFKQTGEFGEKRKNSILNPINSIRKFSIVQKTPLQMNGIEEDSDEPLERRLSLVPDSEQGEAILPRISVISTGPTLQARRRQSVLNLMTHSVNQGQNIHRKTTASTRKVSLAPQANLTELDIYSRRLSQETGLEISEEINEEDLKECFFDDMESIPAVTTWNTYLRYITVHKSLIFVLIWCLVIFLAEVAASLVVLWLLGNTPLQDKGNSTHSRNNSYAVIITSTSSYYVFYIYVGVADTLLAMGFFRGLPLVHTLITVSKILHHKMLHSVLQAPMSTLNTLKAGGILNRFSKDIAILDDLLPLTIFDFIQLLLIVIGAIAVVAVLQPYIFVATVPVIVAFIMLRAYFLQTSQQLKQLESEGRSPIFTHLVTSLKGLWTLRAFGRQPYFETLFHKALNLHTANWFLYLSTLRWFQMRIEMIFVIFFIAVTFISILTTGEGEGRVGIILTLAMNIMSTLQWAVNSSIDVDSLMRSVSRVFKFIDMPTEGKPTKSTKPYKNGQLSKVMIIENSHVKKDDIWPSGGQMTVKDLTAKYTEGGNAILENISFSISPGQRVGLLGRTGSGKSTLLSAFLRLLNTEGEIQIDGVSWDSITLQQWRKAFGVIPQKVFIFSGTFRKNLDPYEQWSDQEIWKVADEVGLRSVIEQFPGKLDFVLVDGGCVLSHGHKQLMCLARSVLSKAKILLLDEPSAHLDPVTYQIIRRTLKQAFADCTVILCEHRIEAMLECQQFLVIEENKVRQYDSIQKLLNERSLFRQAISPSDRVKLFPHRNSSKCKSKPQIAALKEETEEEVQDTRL

Compound	Nauc @ 1 μM [1]	Nauc @ 3 μM [2]	Nauc @ 10 μM [3]	Nauc @ 1 μM [4]	Nauc @ 3 μM [5]	Nauc @ 10 μM [6]
CC(C)(C)CN(C(=O)[C@H]1[C@H]2CC3(CC3)CN2[C@]2(C(=O)Nc3c(Cl)cc(Cl)cc32)[C@H]1C(=O)O)c1cc(Cl)cc(Cl)c1 (single isomer, unassigned) [Example 275.7a]	+++ (NAUC “+++” refers to an observed NAUC>170% of positive control)	+++ (NAUC “+++” refers to an observed NAUC>170% of positive control)	+++ (NAUC “+++” refers to an observed NAUC>170% of positive control)			
O=C(Nc1cc(Cl)cc(Cl)c1)C1CN(CC(F)(F)F)C2(C(=O)Nc3c(Cl)cc(Cl)cc32)C1C(=O)O (stereo not drawn) [Example 79b]				+ (NAUC “+” refers to an observed NAUC <140% of positive control)	+ (NAUC “+” refers to an observed NAUC <140% of positive control)	++ (NAUC “++” refers to an observed NAUC 170-140% of positive control)
Cn1cc2cc(NC(=O)[C@H]3[C@H]4CC(F)(F)CN4[C@]4(C(=O)Nc5c(Cl)cc(Cl)cc54)[C@H]3C(=O)O)ccc2n1 [Example 143]	+ (NAUC “+” refers to an observed NAUC <140% of positive control)	+ (NAUC “+” refers to an observed NAUC <140% of positive control)				
CN(C)C(=O)CN1C(=O)[C@]2(c3cc(Cl)cc(Cl)c31)[C@@H](C(=O)O)[C@@H](C(=O)N(CC1CC1)c1cc(Cl)cc(Cl)c1)[C@H]1CC(F)(F)CN12 [Example 205]	+ (NAUC “+” refers to an observed NAUC <140% of positive control)	++ (NAUC “++” refers to an observed NAUC 170-140% of positive control)	++ (NAUC “++” refers to an observed NAUC 170-140% of positive control)			
O=C(O)[C@H]1[C@@H](C(=O)N(CC2(C(F)(F)F)CC2)c2cc(Cl)cc(Cl)c2)[C@H]2CC(F)(F)CN2[C@]12C(=O)Nc1c(Cl)cc(Cl)cc12 [Example 155]	+++ (NAUC “+++” refers to an observed NAUC>170% of positive control)	+++ (NAUC “+++” refers to an observed NAUC>170% of positive control)	+ (NAUC “+” refers to an observed NAUC <140% of positive control)			
COc1cc(C(F)(F)F)cc(NC(=O)C2C3CC(F)(F)CN3C3(C(=O)Nc4c(Cl)cc(Cl)cc43)C2C(=O)O)n1 (single isomer, unassigned) [Example 80.7a.1, 5,7-dichloro-6′,6′-difluoro-1′-((6-methoxy-4-(trifluoromethyl)pyridin-2-yl)carbamoyl)-2-oxo-1′,2′,5′,6′,7′,7a′-hexahydrospiro[indoline-3,3′-pyrrolizine]-2′-carboxylic acid]						+ (NAUC “+” refers to an observed NAUC <140% of positive control)
O=C(Nc1cc(Cl)cc(Cl)c1)C1CN(CC(F)(F)F)C2(C(=O)Nc3c(Cl)cc(Cl)cc32)C1C(=O)O (stereo not drawn) [Example 41]					+ (NAUC “+” refers to an observed NAUC <140% of positive control)	++ (NAUC “++” refers to an observed NAUC 170-140% of positive control)
Cc1ccccc1C(F)(F)C1NC2(C(=O)Nc3c(Cl)cc(Cl)cc32)C(C(=O)O)C1C(=O)Nc1cc(Cl)cc(Cl)c1 (stereo not drawn) [Example 61]					+++ (NAUC “+++” refers to an observed NAUC>170% of positive control)	+++ (NAUC “+++” refers to an observed NAUC>170% of positive control)
O=C(O)[C@H]1[C@@H](C(=O)N(c2cc(Cl)cc(Cl)c2)C2CC(O)C2)[C@H]2CC(F)(F)CN2[C@]12C(=O)Nc1c(Cl)cc(Cl)cc12 (stereo partly drawn) [Example 159]	+ (NAUC “+” refers to an observed NAUC <140% of positive control)	+ (NAUC “+” refers to an observed NAUC <140% of positive control)				
CN1C(=O)[C@]2(c3cc(Cl)cc(Cl)c31)[C@@H](C(=O)O)[C@@H](C(=O)N(CC(C)(C)C)c1cc(Cl)cc(Cl)c1)[C@H]1CC(F)(F)CN12 [Example 207]	++ (NAUC “++” refers to an observed NAUC 170-140% of positive control)	++ (NAUC “++” refers to an observed NAUC 170-140% of positive control)				
O=C(Nc1cc(Cl)cc(Cl)c1)C1C(C(F)(F)F)NC2(C(=O)Nc3c(Cl)cc(Cl)cc32)C1C(=O)O (stereo not drawn) [Example 40]					+++ (NAUC “+++” refers to an observed NAUC>170% of positive control)	+++ (NAUC “+++” refers to an observed NAUC>170% of positive control)
O=C(Nc1cncc(C(F)(F)F)n1)C1C2CC(F)(F)CN2C2(C(=O)Nc3c(Cl)cc(Cl)cc32)C1C(=O)O (stereo not drawn) [Example 23]					++ (NAUC “++” refers to an observed NAUC 170-140% of positive control)	+ (NAUC “+” refers to an observed NAUC <140% of positive control)
CN(C(=O)C1C2CC(F)(F)CN2C2(C(=O)Nc3c(Cl)cc(Cl)cc32)C1C(=O)O)c1cc(C(F)(F)F)cc(C(F)(F)F)n1 (single isomer, unassigned) [Example 273a, 1′-((4,6-bis(trifluoromethyl)pyridin-2-yl)(methyl)carbamoyl)-5,7-dichloro-6′,6′-difluoro-2-oxo-1′,2′,5′,6′,7′,7a′-hexahydrospiro[indoline-3,3′-pyrrolizine]-2′-carboxylic acid]	+ (NAUC “+” refers to an observed NAUC <140% of positive control)	+ (NAUC “+” refers to an observed NAUC <140% of positive control)				
CC(C)(C)C(C)(C)CN(C(=O)[C@H]1[C@H]2CC(F)(F)CN2[C@]2(C(=O)Nc3c(Cl)cc(Cl)cc32)[C@H]1C(=O)O)c1cc(Cl)cc(Cl)c1 [Example 185]	+++ (NAUC “+++” refers to an observed NAUC>170% of positive control)	+++ (NAUC “+++” refers to an observed NAUC>170% of positive control)	+ (NAUC “+” refers to an observed NAUC <140% of positive control)			
CN(C(=O)N1C(=O)C2(c3cc(Cl)cc(Cl)c31)C(C(=O)OCOC(=O)C(C)(C)C)CC1CC(F)(F)CN12)c1cc(Cl)cc(Cl)c1 (single isomer, unassigned) [Example 251b, (pivaloyloxy)methyl 5,7-dichloro-1-((3,5-dichlorophenyl)(methyl)carbamoyl)-6′,6′-difluoro-2-oxo-1′,2′,5′,6′,7′,7a′-hexahydrospiro[indoline-3,3′-pyrrolizine]-2′-carboxylate]						+ (NAUC “+” refers to an observed NAUC <140% of positive control)
O=C(Nc1cc(Cl)cc(Cl)c1)C1C(C(F)(F)c2ccccc2C(F)(F)F)NC2(C(=O)Nc3c(Cl)cc(Cl)cc32)C1C(=O)O (stereo not drawn) [Example 69.a]						+ (NAUC “+” refers to an observed NAUC <140% of positive control)
CN(O)C(=O)C1C(C(=O)N(C)c2cc(Cl)cc(Cl)c2)C2CC(F)(F)CN2C12C(=O)Nc1c(Cl)cc(Cl)cc12 (single isomer, unassigned) [Example 229b, 5,7-dichloro-N1′-(3,5-dichlorophenyl)-6′,6′-difluoro-N2′-hydroxy-N1′,N2′-dimethyl-2-oxo-1′,2′,5′,6′,7′,7a′-hexahydrospiro[indoline-3,3′-pyrrolizine]-1′,2′-dicarboxamide]						+ (NAUC “+” refers to an observed NAUC <140% of positive control)
CN(C)C(=O)CN(C(=O)[C@H]1[C@H]2CC(F)(F)CN2[C@]2(C(=O)Nc3c(Cl)cc(Cl)cc32)[C@H]1C(=O)O)c1cc(Cl)cc(Cl)c1 [Example 153]	+ (NAUC “+” refers to an observed NAUC <140% of positive control)	+ (NAUC “+” refers to an observed NAUC <140% of positive control)				
CN(C(=O)[C@H]1[C@@H](C(F)(F)F)NC2(C(=O)Nc3c(Cl)cc(Cl)cc32)[C@H]1C(=O)O)c1cc(Cl)cc(Cl)c1 (single isomer, unassigned) [Example 269b]	++ (NAUC “++” refers to an observed NAUC 170-140% of positive control)	+++ (NAUC “+++” refers to an observed NAUC>170% of positive control)	+++ (NAUC “+++” refers to an observed NAUC>170% of positive control)	+++ (NAUC “+++” refers to an observed NAUC>170% of positive control)	+++ (NAUC “+++” refers to an observed NAUC>170% of positive control)	+++ (NAUC “+++” refers to an observed NAUC>170% of positive control)
Cn1cc(N(CC2CC2)C(=O)[C@H]2[C@H]3CC(F)(F)CN3[C@]3(C(=O)Nc4c(Cl)cc(Cl)cc43)[C@H]2C(=O)O)c(C#N)n1 [Example 168]	+ (NAUC “+” refers to an observed NAUC <140% of positive control)	+ (NAUC “+” refers to an observed NAUC <140% of positive control)				
CC(=O)OCOC(=O)[C@@H]1[C@@H](C(=O)N(C)c2cc(Cl)cc(Cl)c2)[C@H]2CC(F)(F)CN2[C@]12C(=O)Nc1c(Cl)cc(Cl)cc12 (single isomer, unassigned) [Example 256a]						+++ (NAUC “+++” refers to an observed NAUC>170% of positive control)
O=C(Nc1cncc(C(F)(F)F)n1)C1C2CC3(CC3)CN2C2(C(=O)Nc3c(Cl)cc(Cl)cc32)C1C(=O)O (stereo not drawn) [Example 2]					+ (NAUC “+” refers to an observed NAUC <140% of positive control)	++ (NAUC “++” refers to an observed NAUC 170-140% of positive control)
